In ChEMBL document CHEMBL1138084, “Synthesis and SAR of novel histamine H3 receptor antagonists” (Bioorg Med Chem Lett, 2006) one finds Ki, IC50 and bioavailability data, which are given here for 52 molecules.

Structures are written as SMILES. Some results are limits rather than exact numbers.

In data set [1] the target is Histamine H3 receptor (Homo sapiens, UniProt Q9Y5N1). Kind of data set: Displacement of [3H]N-alpha-methylhistamine from human cloned H3 receptor.
Data set [2] deals with Histamine H3 receptor (Rattus norvegicus, UniProt Q9QYN8). Description: Displacement of [3H]N-alpha-methylhistamine from rat cloned H3 receptor.
A short description of data set [3]: Inhibition of [3H]R-alpha-methylhistamine binding to brain of po dosed rat. In kind it is functional, organism-based.
A short description of data set [4]: Oral bioavailability in rat at 10 mg/kg. It counts as ADME, organism-based. The conditions noted are these: in vivo.

Chain of Histamine H3 receptor (Rattus norvegicus, UniProt Q9QYN8) (Q9QYN8 whole entry): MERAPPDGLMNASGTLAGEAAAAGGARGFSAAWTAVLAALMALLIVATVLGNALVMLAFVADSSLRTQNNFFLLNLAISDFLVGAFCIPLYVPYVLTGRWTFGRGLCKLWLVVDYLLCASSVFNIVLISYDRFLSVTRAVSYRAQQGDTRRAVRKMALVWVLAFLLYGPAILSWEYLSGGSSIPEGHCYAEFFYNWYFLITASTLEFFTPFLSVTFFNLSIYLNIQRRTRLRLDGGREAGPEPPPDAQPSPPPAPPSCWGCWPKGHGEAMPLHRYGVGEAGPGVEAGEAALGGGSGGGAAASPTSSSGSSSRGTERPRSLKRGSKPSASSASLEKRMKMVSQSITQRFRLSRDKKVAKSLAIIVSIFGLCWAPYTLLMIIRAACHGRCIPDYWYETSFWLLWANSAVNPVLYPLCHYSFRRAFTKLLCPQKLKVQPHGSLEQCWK
Chain of Histamine H3 receptor (Homo sapiens, UniProt Q9Y5N1) (Q9Y5N1 whole entry): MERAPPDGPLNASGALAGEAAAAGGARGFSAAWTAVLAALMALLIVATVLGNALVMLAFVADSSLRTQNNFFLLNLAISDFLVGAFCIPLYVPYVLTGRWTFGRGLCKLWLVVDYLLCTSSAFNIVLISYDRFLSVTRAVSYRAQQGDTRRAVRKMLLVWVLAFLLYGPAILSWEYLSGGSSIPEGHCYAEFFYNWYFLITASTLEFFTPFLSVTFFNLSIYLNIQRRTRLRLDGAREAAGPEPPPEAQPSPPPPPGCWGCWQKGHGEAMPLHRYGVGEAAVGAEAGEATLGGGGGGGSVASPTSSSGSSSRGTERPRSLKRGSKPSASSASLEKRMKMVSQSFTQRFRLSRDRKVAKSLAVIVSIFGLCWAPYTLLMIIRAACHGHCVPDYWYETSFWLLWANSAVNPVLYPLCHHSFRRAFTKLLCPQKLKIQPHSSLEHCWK

On to `O=S(=O)(c1ccccc1)N1CCCc2cc(OCCCN3CCCCC3)ccc21`, for which the Ki on Histamine H3 receptor [1] (read-out: Ki) amounted to 18 nM. The same measure, in the same setting: as for `O=S(=O)(c1ccccc1)N1CCCc2ccc(OCCCN3CCCCC3)cc21`, the figure is 7.3 nM. Consider `CCN1CCc2ccc(OCCCN3CCCCC3)cc2C1`, for which the Ki at Histamine H3 receptor [1] (read-out: Ki) stood at 0.34 nM; at Histamine H3 receptor [2], 0.64 nM. The IC50 in data set [3] stood at 1.1 mg/kg. In addition, the bioavailability in data set [4] was determined as 69%. Turning to `CC(C)NC(=O)N1CCc2ccc(OCCCN3CCCCC3)cc2C1`, the Ki at Histamine H3 receptor [1] (read-out: Ki) is 4.9 nM; on Histamine H3 receptor [2] it was 39.6 nM. On to `CC(C)N1CCCc2cc(OCCCN3CCCCC3)ccc2C1`, for which the results for the Ki at Histamine H3 receptor [1] (read-out: Ki) and on Histamine H3 receptor [2] were 0.2 nM and 1.29 nM, respectively. The IC50 in data set [3] is 5.3 mg/kg. In data set [4], this molecule displayed a bioavailability not below 100%. For `c1ccc(CN2CCCc3cc(OCCCN4CCCCC4)ccc3C2)cc1`, the Ki was found to be 0.2 nM at Histamine H3 receptor [1] (read-out: Ki) and 0.8 nM on Histamine H3 receptor [2].

Turning to `c1cc2c(c(OCCCN3CCCCC3)c1)CNCC2`, the Ki at Histamine H3 receptor [1] (read-out: Ki) was 154 nM. On the same count and under the same terms, the result for `O=C(c1cccs1)N1CCc2cccc(OCCCN3CCCCC3)c2C1` reads more than 300 nM.

With `CC(C)NC(=O)N1CCCc2cc(OCCCN3CCCCC3)ccc2C1`, the Ki at Histamine H3 receptor [1] (read-out: Ki) came to 17.1 nM; at Histamine H3 receptor [2], 32.5 nM. For `c1cc2c(cc1OCCCN1CCCCC1)CNCC2`, the Ki on Histamine H3 receptor [1] (read-out: Ki) is 0.6 nM. The same measure, in the same setting: the result for `c1cc2c(c(OCCCN3CCCCC3)c1)NCCC2` reads more than 300 nM. As to `O=S(=O)(c1ccccc1)N1CCc2cc(OCCCN3CCCCC3)ccc2C1`, at Histamine H3 receptor [1] (read-out: Ki), the Ki worked out at 7.4 nM. As for `CC(=O)N1CCc2ccc(OCCCN3CCCCC3)cc2C1`, the Ki at Histamine H3 receptor [1] (read-out: Ki) was 19.4 nM; on Histamine H3 receptor [2], 36.7 nM. On the same counts, the results for `CC(=O)N1CCc2ccc(OCCCN3CCCCC3)cc2CC1` are 11.6 nM and 48.8 nM. Consider `CCN1CCc2cc(OCCCN3CCCCC3)ccc2C1`, for which the Ki at Histamine H3 receptor [1] (read-out: Ki) amounted to 0.54 nM.

Consider `CCN1CCCc2c(OCCCN3CCCCC3)cccc21`, for which, on Histamine H3 receptor [1] (read-out: Ki), the Ki is more than 300 nM. The same measure, in the same setting: as for `c1cc2c(cc1OCCCN1CCCCC1)N(CC1CCCCC1)CCC2`, the figure is 187 nM. With `CC(C)NC(=O)N1CCc2ccc(OCCCN3CCCCC3)cc2CC1`, the Ki on Histamine H3 receptor [1] (read-out: Ki) amounted to 42.3 nM. Turning to `c1cc2c(cc1OCCCN1CCCCC1)CCNC2`, the Ki on Histamine H3 receptor [1] stood at 2.4. With `O=C(c1cccs1)N1CCc2c(cccc2OCCCN2CCCCC2)C1`, the Ki on Histamine H3 receptor [1] (read-out: Ki) was more than 300 nM. On the same count and under the same terms, as for `O=C(c1cccs1)N1CCc2ccc(OCCCN3CCCCC3)cc2C1`, the figure is 8.1 nM; as for `c1cc2c(c(OCCCN3CCCCC3)c1)CCNC2`, more than 300 nM. With `CC(C)N1CCc2ccc(OCCCN3CCCCC3)cc2CC1`, the Ki on Histamine H3 receptor [1] (read-out: Ki) came to 0.72 nM; on Histamine H3 receptor [2], 1.6 nM. Regarding `c1cc2c(cc1OCCCN1CCCCC1)NCCC2`, the Ki on Histamine H3 receptor [1] (read-out: Ki) was determined as 129 nM.

As to `c1cc2c(c(OCCCN3CCCCC3)c1)CCCN2`, the Ki on Histamine H3 receptor [1] (read-out: Ki) was more than 300 nM. Still for that read-out and setting: the result for `CCN1CCc2cccc(OCCCN3CCCCC3)c2C1` reads 95.2 nM; that for `O=C(c1cccs1)N1CCCc2ccc(OCCCN3CCCCC3)cc21`, 22.6 nM. As for `c1cc2c(cc1OCCCN1CCCCC1)CCN(CC1CCCCC1)CC2`, the Ki at Histamine H3 receptor [1] (read-out: Ki) came out at 0.53 nM; at Histamine H3 receptor [2], 0.97 nM. As to `CS(=O)(=O)N1CCc2ccc(OCCCN3CCCCC3)cc2C1`, the Ki is 23.8 nM on Histamine H3 receptor [1] (read-out: Ki) and 74.5 nM on Histamine H3 receptor [2]. On to `c1cc2c(c(OCCCN3CCCCC3)c1)CCN(CC1CCCCC1)C2`, for which the Ki at Histamine H3 receptor [1] (read-out: Ki) was 15.4 nM.

In the case of `c1cc2c(cc1OCCCN1CCCCC1)CCN(CC1CCCCC1)C2`, the Ki at Histamine H3 receptor [1] (read-out: Ki) amounted to 1.01 nM.

Take `CS(=O)(=O)N1CCc2ccc(OCCCN3CCCCC3)cc2CC1`: the results for the Ki at Histamine H3 receptor [1] (read-out: Ki) and on Histamine H3 receptor [2] were 12.1 nM and 38.1 nM, respectively. For the molecule `CC(C)N1CCc2ccc(OCCCN3CCCCC3)cc2C1`, the Ki was found to be 0.17 nM at Histamine H3 receptor [1] (read-out: Ki) and 0.89 nM on Histamine H3 receptor [2]. Regarding `c1cc2c(c(OCCCN3CCCCC3)c1)N(CC1CCCCC1)CCC2`, the Ki on Histamine H3 receptor [1] (read-out: Ki) was more than 300 nM.

Consider `c1cc2c(cc1OCCCN1CCCCC1)CCCN2CC1CCCCC1`, for which the Ki at Histamine H3 receptor [1] (read-out: Ki) stood at 31 nM. Turning to `CCN1CCc2ccc(OCCCN3CCCCC3)cc2CC1`, the Ki at Histamine H3 receptor [1] (read-out: Ki) came out at 0.26 nM; on Histamine H3 receptor [2] it was 1.1 nM.

Turning to `CCN1CCCc2ccc(OCCCN3CCCCC3)cc21`, the Ki on Histamine H3 receptor [1] (read-out: Ki) came to 156 nM.

`CCN1CCCc2cc(OCCCN3CCCCC3)ccc2C1`: the Ki stood at 0.34 nM at Histamine H3 receptor [1] (read-out: Ki) and 0.56 nM at Histamine H3 receptor [2]. On the same counts, the results for `c1cc2c(cc1OCCCN1CCCCC1)CN(CC1CCCCC1)CC2` are 0.35 nM and 0.46 nM. Consider `c1cc(OCCCN2CCCCC2)c2c(c1)N(CC1CCCCC1)CCC2`, for which the Ki on Histamine H3 receptor [1] (read-out: Ki) was determined as 141 nM. Still for that read-out and setting: the result for `c1cc2c(c(OCCCN3CCCCC3)c1)CN(CC1CCCCC1)CC2` reads 59 nM.

Turning to `CCN1CCCc2cccc(OCCCN3CCCCC3)c21`, the Ki on Histamine H3 receptor [1] (read-out: Ki) is more than 300 nM. The same measure, in the same setting: as for `O=S(=O)(c1ccccc1)N1CCc2ccc(OCCCN3CCCCC3)cc2C1`, the figure is 0.53 nM.

With `O=S(=O)(c1ccccc1)N1CCc2cccc(OCCCN3CCCCC3)c2C1`, at Histamine H3 receptor [1] (read-out: Ki), the Ki is more than 300 nM. On to `CS(=O)(=O)N1CCCc2cc(OCCCN3CCCCC3)ccc2C1`, for which the Ki on Histamine H3 receptor [1] (read-out: Ki) was 2.9 nM; on Histamine H3 receptor [2] it was 70.1 nM. Take `CCN1CCc2c(cccc2OCCCN2CCCCC2)C1`: the Ki at Histamine H3 receptor [1] (read-out: Ki) was 84.2 nM. Still for that read-out and setting: the result for `O=S(=O)(c1ccccc1)N1CCc2c(cccc2OCCCN2CCCCC2)C1` reads more than 300 nM; that for `O=C(c1cccs1)N1CCCc2cccc(OCCCN3CCCCC3)c21`, more than 300 nM. Still for that read-out and setting: the result for `c1cc2c(cc1OCCCN1CCCCC1)CCCN2` reads 54 nM; that for `O=S(=O)(c1ccccc1)N1CCCc2cccc(OCCCN3CCCCC3)c21`, more than 300 nM.

Take `CCN1CCCc2cc(OCCCN3CCCCC3)ccc21`: the Ki on Histamine H3 receptor [1] (read-out: Ki) is 41 nM. Same read-out and setting: the result for `O=C(c1cccs1)N1CCc2cc(OCCCN3CCCCC3)ccc2C1` reads 2.1 nM.
